# Experimental data as given in patent US11365177B2, “Chemical uncouplers of respiration and methods of use thereof” (Dana-Farber Cancer Institute, Inc., priority 2017, dated 2022).
# Like-named read-outs stand apart in the source and are kept apart here. Peptide text beside a SMILES is read from it. * marks the point of attachment. Oleoyl = CCCCCCCC/C=C\CCCCCCCC(=O)*
# Test system: C2C12 cells
# Experiment: Measurement of cellular respiration (Seahorse), uncoupling bioactivity
# Type: cell-based
# Details: Mus musculus, 50 μM compound, maximal increase versus basal oligomycin-treated respiration, means SEM, n=3-6/group, read-out: % stimulation of respiration (baseline = 100%)
# Method: Oligomycin was purchased from EMD Millipore, and FCCP and rotenone were purchased from Sigma. C2C12 cells were seeded at 35,000 cells/well in an XF24 cell culture microplate (V7-PS, Seahorse Bioscience) and analyzed the following day. On the day of analysis, the cells were washed once with Seahorse respiration buffer (8.3 g/l DMEM, 1.8 g/l NaCl, 1 mM pyruvate, 20 mM glucose, pen/strep), placed in 0.5 ml Seahorse respiration buffer, and incubated in a CO2-free incubator for 1 h. Port injection solutions were prepared as follows (final concentrations in assay in parentheses): 10 μM oligomycin (1 μM final), 500 μM indicated compound (50 μM final), 2 μM FCCP (0.2 μM final), and 30 μM rotenone (3 μM final). The Seahorse program was run as follows: basal measurement, 3 cycles; inject port A (oligomycin), 3 cycles; inject port B (compounds), 8 cycles; inject port C (FCCP), 3 cycles; inject port D (rotenone), 3 cycles. Each cycle consisted of mix 2 min, wait 0 min, and measure 2 min. For data expressed as a percentage of oligomycin-treated basal, the respiration at cycle 6 was normalized to 100%, and the maximum respiration at any time point between cycles 7 and 15 inclusive was used.
# Tables 1-4 show uncoupling bioactivity of compounds of the disclosure with different fatty acid side chains. Respiration in C2C12 cells is shown as maximal increases versus basal oligomycin-treated respiration, which is normalized to 100%. Data are shown as means SEM, n=3-6/group.
# [1] = Table 3, various fatty acid side chains
Compound,"activity at 50 µM (Table 2, various head groups) [%]",activity at 50 µM [1] [%]
"CCCCCCCC/C=C\CCCCCCCC(=O)N[C@@H](Cc1ccccc1)C(=O)O [Compound 1, Oleoyl-L-phenylalanine]",161 ± 12,
"CCCCCCCC/C=C\CCCCCCCC(=O)N[C@H](Cc1ccccc1)C(=O)O [Compound 2, Oleoyl-D-phenylalanine]",173 ± 9,
"CCCCCCCC/C=C\CCCCCCCC(=O)NCCc1ccccc1 [Compound 3, N-phenethyloleamide]",104 ± 4,
"CCCCCCCC/C=C\CCCCCCCC(=O)N[C@@H](CC(C)C)C(=O)O [Compound 4, Oleoyl-L-leucine]",178 ± 13,
"CCCCCCCC/C=C\CCCCCCCC(=O)N[C@H](C(=O)O)[C@@H](C)CC [Compound 5, Oleoyl-L-isoleucine]",167 ± 14,
"CCCCCCCC/C=C\CCCCCCCC(=O)N[C@@H](CCC(N)=O)C(=O)O [Compound 6, Oleoyl-L-glutamine]",164 ± 4,
"CCCCCCCC/C=C\CCCCCCCC(=O)N1CCC[C@H]1C(=O)O [Compound 7, Oleoyl-L-proline]",182 ± 7,
"CCCCCCCC/C=C\CCCCCCCC(=O)N[C@@H](Cc1c[nH]c2ccccc12)C(=O)O [Compound 8, Oleoyl-L-tryptophan]",147 ± 9,
"CCCCCCCC/C=C\CCCCCCCC(=O)N[C@@H](CCCCN)C(=O)O [Compound 9, Oleoyl-L-lysine]",108 ± 4,
"CCCCCCCC/C=C\CCCCCCCC(=O)N[C@@H](Cc1ccc(O)cc1)C(=O)O [Compound 10, Oleoyl-L-tyrosine]",105 ± 13,
"CCCCCCCC/C=C\CCCCCCCC(=O)N[C@@H](CCC(=O)O)C(=O)O [Compound 11, Oleoyl-L-glutamic acid]",106 ± 7,
"CCCCCCCC/C=C\CCCCCCCC(=O)NCC(=O)NCC(=O)O [Compound 12, Oleoylglycylglycine] (Oleoyl-Gly-Gly-OH)",206 ± 32,
"CCCCCCCC/C=C\CCCCCCCC(=O)NCCC(=O)O [Compound 13, 3-Oleamidopropanoic acid]",185 ± 10,
"CCCCCCCCCCCC(=O)N[C@@H](Cc1ccccc1)C(=O)O [Compound 14, Dodecanoyl-L-phenylalanine]",,96 ± 4
"CCCCCCCCCCCCCCCC(=O)N[C@@H](Cc1ccccc1)C(=O)O [Compound 15, Palmitoyl-L-phenylalanine]",,180 ± 20
"CCCCCCCCCCCCCCCCCC(=O)N[C@@H](Cc1ccccc1)C(=O)O [Compound 16, Stearoyl-L-phenylalanine]",,148 ± 12
"CCCCCCCCCCCCCCCCCCCC(=O)N[C@@H](Cc1ccccc1)C(=O)O [Compound 17, Icosanoyl-L-phenylalanine]",,95 ± 8
"CCCCCCCCCCCCCCCCCCCCCC(=O)N[C@@H](Cc1ccccc1)C(=O)O [Compound 18, Docosanoyl-L-phenylalanine]",,100 ± 3
"CCCCC/C=C\C/C=C\CCCCCCCC(=O)N[C@@H](Cc1ccccc1)C(=O)O [Compound 19, ((9Z,12Z)-Octadeca-9,12-dienoyl)-L-phenylalanine]",,218 ± 10
"CCC/C=C\C/C=C\C/C=C\CCCCCCC(=O)N[C@@H](Cc1ccccc1)C(=O)O [Compound 20, ((8Z,11Z,14Z)-Octadeca-8,11,14-trienoyl)-L-phenylalanine]",,109 ± 12
"CCCCCCCC/C=C/CCCCCCCC(=O)N[C@@H](Cc1ccccc1)C(=O)O [Compound 21, (E)-Octadec-9-enoyl-L-phenylalanine]",,107 ± 3
"CCCCCCCCCCC/C=C\CCCCC(=O)N[C@@H](Cc1ccccc1)C(=O)O [Compound 22, (Z)-Octadec-6-enoyl-L-phenylalanine]",,110 ± 12
"CCCCCC/C=C\CCCCCCCCCC(=O)N[C@@H](Cc1ccccc1)C(=O)O [Compound 23, (Z)-Octadec-11-enoyl-L-phenylalanine]",,115 ± 8
"CCCCCCCC/C=C\CCCCCCCCCC(=O)N[C@@H](Cc1ccccc1)C(=O)O [Compound 24, (Z)-Icos-11-enoyl-L-phenylalanine]",,103 ± 3
